Test results taken from a compilation of properties of binary mixtures (doi:10.1021/acs.jced.1c00111).

Experiment: xn = mol fraction of the nth substance listed
Details: 100 kPa

CC[NH+](C)CC.CS(=O)(=O)[O-] + O
viscosity [mPa·s]
Details	298.15 K	303.15 K	308.15 K	313.15 K	318.15 K	323.15 K	328.15 K	333.15 K	338.15 K
x1 = 0.0155	1.28	1.15	–	0.957	0.876	0.806	0.751	0.693	0.643
x1 = 0.0356	2.02	1.84	1.64	1.47	1.34	1.22	1.13	1.04	0.953
x1 = 0.0571	2.57	2.27	2	–	1.61	1.45	1.31	1.2	–
x1 = 0.0757	3.43	2.99	2.64	2.34	2.09	1.87	1.68	1.53	1.39
x1 = 0.0967	–	–	3.45	3.05	2.7	2.42	2.17	–	1.79
x1 = 0.1234	5.96	5.09	4.39	3.82	3.35	2.97	2.64	2.36	2.12
x1 = 0.1582	8.21	6.94	5.93	5.13	–	3.92	–	3.08	2.75
x1 = 0.206	11.6	9.76	8.3	7.11	6.12	5.3	–	4.03	3.55
x1 = 0.3246	20	–	13.9	–	10.1	8.94	7.81	–	–
x1 = 0.4263	–	25.9	22	–	15.6	13.2	11.5	9.9	–
x1 = 0.5018	42.1	34	–	22.8	19.4	16.5	–	–	–
x1 = 0.5783	52.8	42.1	–	28.3	23.6	20	17	14.5	–
x1 = 0.6771	–	–	44.2	36	29.8	24.8	21.1	18.1	–
x1 = 0.7782	90.5	70.3	–	44.9	36.5	30	–	22.2	18.7
